From patent US8936806B2, “Periostin induces proliferation of cardiomyocytes and promotes cardiac regeneration” (Children's Medical Center Corporation, priority 2007, dated 2015)
“Also recorded” adds a separate entry of the source. Read-outs that look alike come from different tables or passages of the source.

How the values were obtained:
[1] = test system: Adult male Sprague-Dawley rats; test: Cardiomyocyte cell cycle activity in vivo after intramyocardial injection; design: species or system rat; LVFW CM nuclei: unit not given here
Protocol: Experiments were performed in accordance with institutional guidelines of Massachusetts General Hospital. Injections and analyses were performed in a blinded fashion. Adult male Sprague-Dawley rats (300 gm, Charles River Laboratories) underwent thoracotomy and received intramyocardial injections of 50 μg of recombinant human periostin consisting of the fas1-4 domains, 50 μg of rat fibronectin, or 100 μL of 100 mM sodium acetate as a control (5 rats per group). The survival rate for this procedure was 80%. Injected periostin was confirmed by detection with a polyclonal antibody directed against human periostin (Abcam) and visualized by immunofluorescence microscopy. Intraperitoneal injections of BrdU (70 μmol/kg body weight) with a tissue half life of 2 hr were given every 48 hr, and rats were sacrificed after the third injection. Horizontal cryosections of 14 μm thickness spaced at 1 mm intervals were analyzed by laser scanning immunofluorescence microscopy. BrdU-positive cardiomyocyte nuclei and cytokineses were quantified on 16-20 sections per heart. Fibrosis and cardiomyocyte cross-sectional area were determined on 5 Masson's Trichrome-stained sections at the level of the injection at 40× magnification and quantified using the Metamorph software package (Molecular Devices Corp., Downingtown, Pa.).

[2] = test system: primary neonatal rat ventricular cardiomyocytes; test: DNA synthesis, mitosis and cytokinesis in primary neonatal rat ventricular cardiomyocytes; format: cell-based; conditions: for induction of cardiomyocyte DNA synthesis: FIG. 2d, 2e; for inhibition of periostin-stimulated DNA synthesis by integrin blockers: cRGD 10 μM, antibodies 10 μg/mL
Text: Primary neonatal rat ventricular cardiomyocytes were isolated using the Neomyts kit (Cellutron, Highland Park, N.J.), seeded at a density of 10^5 cells/cm^2 onto gelatin-coated cover slips, stimulated for 3 days, and labeled with BrdU for the terminal 2 days. Primary adult ventricular cardiomyocytes were isolated from male (300 gm) Wistar rats (Charles River Laboratories) and maintained as described (Engel, F. B. et al. p38 MAP kinase inhibition enables proliferation of adult mammalian cardiomyocytes. Genes Dev 19, 1175-87 (2005)). Adult cardiomyocytes were stimulated daily for 9 days and labeled with 30 μM BrdU for the terminal 3 days. Cardiomyocytes were stimulated with periostin (500 ng/mL) and FGF (100 ng/mL). Inhibiting antibodies were added at a concentration of 10 μg/mL, cRGD at 10 μM, U0126 at 10 μM, PD98059 at 1 μM, LY294002 at 10 μM, and Wortmannin at 0.1 μM 30 min prior to stimulation. The vehicle used to dissolve factors or chemicals was added to unstimulated samples, which were then processed together with the test samples.
DNA-synthesis was analyzed by visualization of BrdU uptake and cytokinesis was determined by detection of the cleavage furrow and the midbody with an antibody against aurora B kinase as described (Engel, F. B. et al. p38 MAP kinase inhibition enables proliferation of adult mammalian cardiomyocytes. Genes Dev 19, 1175-87 (2005)). Signals were visualized with secondary antibodies conjugated to Alexa 488, Alexa 546, Alexa 594, and Alexa 647 (Invitrogen). Nuclei were visualized with 4′,6′-diamidino-2-phenylindole (DAPI, Invitrogen). For image acquisition, the value for γ was set at 1 and the lookup table settings were linear.

[3] = test system: primary neonatal rat ventricular cardiomyocytes; test: Cardiomyocyte proliferation by cell count (hemocytometer); format: cell-based; conditions: for inhibition of periostin-stimulated proliferation by integrin blockers: cRGD 10 μM, antibodies 10 μg/mL; for inhibition of periostin-stimulated proliferation by ERK and PI3-kinase inhibitors: U0126 10 μM, PD98059 1 μM, LY294002 10 μM, Wortmannin 0.1 μM
Protocol: To determine cardiomyocyte proliferation, primary neonatal rat ventricular cardiomyocytes were quantified by counting with a hemocytometer after 3 days and 6 days of stimulation. To determine cardiomyocyte survival, primary neonatal rat ventricular cardiomyocytes were pre-treated with 500 ng/mL periostin or buffer for 30 min and then exposed to 0.5 μM doxycycline or 100 ng/mL TNFα for 24 hr and quantified by counting. Corresponding samples were stained with an antibody directed against tropomyosin as a cardiomyocyte marker to control for the percentage of differentiated cardiomyocytes. Apoptotic cardiomyocyte nuclei were determined after 24 hr with the In situ Cell Death Detection Kit (Roche, Indianapolis, Ind.) in combination with staining for troponin I.

[4] = test system: primary adult rat ventricular cardiomyocytes; test: DNA synthesis (BrdU uptake, immunofluorescence) in primary adult rat ventricular cardiomyocytes; format: cell-based; design: inhibition of periostin-stimulated DNA synthesis by integrin antibodies: dose or concentration left out as unconfirmed; conditions: for inhibition of periostin-induced DNA synthesis / cell-cycle reentry by kinase inhibitors / inhibition of neuregulin-induced cell-cycle reentry: PD98059 1 mM; for inhibition of periostin-induced DNA synthesis / cell-cycle reentry by kinase inhibitors: U0126 10 mM, LY294002 10 mM, SH-6 10 mM, Akt1/2 inhibitor 1 mM [sic]; for inhibition of neuregulin-induced cell-cycle reentry: U0126 10 mM as printed
Text: Primary neonatal rat ventricular cardiomyocytes were isolated using the Neomyts kit (Cellutron, Highland Park, N.J.), seeded at a density of 10^5 cells/cm^2 onto gelatin-coated cover slips, stimulated for 3 days, and labeled with BrdU for the terminal 2 days. Primary adult ventricular cardiomyocytes were isolated from male (300 gm) Wistar rats (Charles River Laboratories) and maintained as described (Engel, F. B. et al. p38 MAP kinase inhibition enables proliferation of adult mammalian cardiomyocytes. Genes Dev 19, 1175-87 (2005)). Adult cardiomyocytes were stimulated daily for 9 days and labeled with 30 μM BrdU for the terminal 3 days. Cardiomyocytes were stimulated with periostin (500 ng/mL) and FGF (100 ng/mL). […] The vehicle used to dissolve factors or chemicals was added to unstimulated samples, which were then processed together with the test samples. DNA-synthesis was analyzed by visualization of BrdU uptake and cytokinesis was determined by detection of the cleavage furrow and the midbody with an antibody against aurora B kinase as described (Engel, F. B. et al. p38 MAP kinase inhibition enables proliferation of adult mammalian cardiomyocytes. Genes Dev 19, 1175-87 (2005)). Signals were visualized with secondary antibodies conjugated to Alexa 488, Alexa 546, Alexa 594, and Alexa 647 (Invitrogen). […] For image acquisition, the value for γ was set at 1 and the lookup table settings were linear. Primary adult rat ventricular cardiomyocytes were grown on gridded cover slips (Electron Microscopy Services, Ft. Washington, Pa.) and imaged in phase contrast at 10× magnification. Cardiomyocytes were transduced with an adenovirus leading to nuclear expression of histone2B-GFP (Shi, Q. & King, R. W. Nature 437, 1038-42 (2005)) under control of the chicken troponin T promoter ([…]. Am J Physiol Cell Physiol 286, […]-64 (2004)). Nuclei were visualized at 10× magnification with a mercury-arc lamp dimmed to 1.5% with a neutral density filter. […] Images of BrdU-positive cardiomyocytes were matched with the corresponding images from before stimulation. For quantification, differentiated cardiomyocytes were defined as striated rod-shaped structures with length/width ratio>1.5.

[5] = 1 week after intracardiac injection
[6] = U0126 10 μM, PD98059 1 μM, LY294002 10 μM, Wortmannin 0.1 μM

Question: “Fibronectin: Rat fibronectin from Biomedical Technologies; extracellular matrix component [reference compound]” was tested. Which “LVFW BrdU-positive CM nuclei” value [1, 5] did it give?
Answer: 0.002 ± 0.0004%

Question: And the “LVFW CM nuclei” value [1, 5]?
Answer: 10.7 ± 0.4 10^$$ per heart

Question: And the “LVFW BrdU-positive CM nuclei” value ([1]; 1 week after intracardiac injection, 3 BrdU injections)?
Answer: 273.6 ± 42.8 per heart

Question: What about the LVFW myocardial volume ([1]; 1 week after intracardiac injection, 50 μg periostin (fas1-4 domains) or 50 μg rat fibronectin) of the same molecule?
Answer: 224 ± 6 mm^3

Question: What about the “cardiomyocyte DNA synthesis in vivo” value ([1]; FIG. 4c) of the same molecule?
Answer: did not increase

Question: And the “cardiomyocyte cytokinesis in vivo” value ([1]; FIG. 4d)?
Answer: did not increase

Question: What about the “induction of cardiomyocyte DNA synthesis” value [2] of the same molecule?
Answer: did not induce DNA synthesis

Question: With “integrin αV antibody: integrin αV (RMV-7) blocking antibody, BioLegend” as the molecule, how does the “inhibition of periostin-stimulated DNA synthesis by integrin blockers” value [2] read?
Answer: inhibited

Question: What about the “inhibition of periostin-stimulated proliferation by integrin blockers” value [3] of the same molecule?
Answer: inhibited

Question: What about the “inhibition of periostin-stimulated DNA synthesis by integrin antibodies” value ([4]; differentiated cardiomyocytes) of the same molecule?
Answer: inhibited

Question: Which results are given for Cyclic Arg-Gly-Asp [cRGD]?
Answer: inhibition of periostin-stimulated DNA synthesis by integrin blockers [2]: inhibited; also recorded: blocked; inhibition of periostin-stimulated proliferation by integrin blockers [3]: blocked

Question: With SH-6 as the molecule, how does the “inhibition of periostin-induced DNA synthesis / cell-cycle reentry by kinase inhibitors” value ([4]; differentiated cardiomyocytes) read?
Answer: reduced

Question: How did the “inhibition of periostin-induced DNA synthesis / cell-cycle reentry by kinase inhibitors” value ([4]; differentiated cardiomyocytes) turn out when O.O=C(O)C(F)(F)F.O=c1[nH]c2ccccc2n1C1CCN(Cc2ccc(-c3nc4cc5[nH]cnc5cc4nc3-c3ccccc3)cc2)CC1 [Akt1/2 inhibitor] was run?
Answer: reduced

Question: N#CC(=C(/N)Sc1ccccc1N)/C(C#N)=C(\N)Sc1ccccc1N [U0126] was tested. Which “inhibition of periostin-stimulated DNA synthesis by ERK and PI3-kinase inhibitors” value [2] did it give?
Answer: inhibited only by blocking Akt activation

Question: And the “inhibition of periostin-stimulated cytokinesis by ERK and PI3-kinase inhibitors” value [2]?
Answer: inhibited

Question: What about the “inhibition of periostin-stimulated proliferation by ERK and PI3-kinase inhibitors” value [3] of the same molecule?
Answer: inhibited

Question: What about the “inhibition of neuregulin-induced cell-cycle reentry” value ([4]; differentiated cardiomyocytes) of the same molecule?
Answer: inhibited

Question: What about the “inhibition of periostin-induced DNA synthesis / cell-cycle reentry by kinase inhibitors” value ([4]; differentiated cardiomyocytes) of the same molecule?
Answer: did not reduce; also recorded: did not block

Question: With COc1cccc(-c2cc(=O)c3ccccc3o2)c1N [PD98059] as the molecule, how does the “inhibition of periostin-stimulated DNA synthesis by ERK and PI3-kinase inhibitors” value [2, 6] read?
Answer: inhibited only by blocking Akt activation

Question: And the “inhibition of periostin-stimulated cytokinesis by ERK and PI3-kinase inhibitors” value [2, 6]?
Answer: inhibited

Question: What about the “inhibition of periostin-stimulated proliferation by ERK and PI3-kinase inhibitors” value [3] of the same molecule?
Answer: inhibited

Question: And the “inhibition of neuregulin-induced cell-cycle reentry” value ([4]; differentiated cardiomyocytes)?
Answer: inhibited

Question: And the “inhibition of periostin-induced DNA synthesis / cell-cycle reentry by kinase inhibitors” value ([4]; differentiated cardiomyocytes)?
Answer: did not reduce; also recorded: did not block

Question: C[S+]([O-])c1ccc(-c2nc(-c3ccncc3)c(-c3ccc(F)cc3)[nH]2)cc1 (stereo not shown) [SB203580] was tested. Which “effect on periostin-induced cardiomyocyte DNA synthesis when added” value ([4]; FGF 100 ng/ml, SB203580 5 mM or 10 mM as printed) did it give?
Answer: no additional effect

Question: How did the “induction of cardiomyocyte DNA synthesis” value [2] turn out when “collagen: type 1 rat collagen, extracellular matrix component known to activate integrins” was run?
Answer: did not induce DNA synthesis

B1: boiled periostin: boiled periostin used in control experiments to rule out a non-protein impurity (protein, UniProt Q15063 22-836, looked up)
Periostin: NNHYDKILAHSRIRGRDQGPNVCALQQILGTKKKYFSTCKNWYKKSICGQKTTVLYECCPGYMRMEGMKGCPAVLPIDHVYGTLGIVGATTTQRYSDASKLREEIEGKGSFTYFAPSNEAWDNLDSDIRRGLESNVNVELLNALHSHMINKRMLTKDLKNGMIIPSMYNNLGLFINHYPNGVVTVNCARIIHGNQIATNGVVHVIDRVLTQIGTSIQDFIEAEDDLSSFRAAAITSDILEALGRDGHFTLFAPTNEAFEKLPRGVLERIMGDKVASEALMKYHILNTLQCSESIMGGAVFETLEGNTIEIGCDGDSITVNGIKMVNKKDIVTNNGVIHLIDQVLIPDSAKQVIELAGKQQTTFTDLVAQLGLASALRPDGEYTLLAPVNNAFSDDTLSMDQRLLKLILQNHILKVKVGLNELYNGQILETIGGKQLRVFVYRTAVCIENSCMEKGSKQGRNGAIHIFREIIKPAEKSLHEKLKQDKRFSTFLSLLEAADLKELLTQPGDWTLFVPTNDAFKGMTSEEKEILIRDKNALQNIILYHLTPGVFIGKGFEPGVTNILKTTQGSKIFLKEVNDTLLVNELKSKESDIMTTNGVIHVVDKLLYPADTPVGNDQLLEILNKLIKYIQIKFVRGSTFKEIPVTVYTTKIITKVVEPKIKVIEGSLQPIIKTEGPTLTKVKIEGEPEFRLIKEGETITEVIHGEPIIKKYTKIIDGVPVEITEKETREERIITGPEIKYTRISTGGGETEETLKKLLQEEVTKVTKFIEGGDGHLFEDEEIKRLLQGDTPVRKLQANKKVQGSRRRLREGRSQ
modifications: heat-denatured
notes: boiled periostin used in control experiments to rule out a non-protein impurity
Question: For B1, which “activation of the cardiomyocyte cell cycle” value ([2]; control for non-protein impurity) is on record?
Answer: did not activate

B2: variant consisting of the 4 fas1 domains: periostin derivative consisting of 4 fas1 domains, purified from bacteria, molecular weight of 75 kDa (protein)
chain: NNHYDKILAHSRIRGRDQGPNVCALQQILGTKKKYFSTCKNWYKKSICGQKTTVLYECCPGYMRMEGMKGCPAVLPIDHVYGTLGIVGATTTQRYSDASKLREEIEGKGSFTYFAPSNEAWDNLDSDIRRGLESNVNVELLNALHSHMINKRMLTKDLKNGMIIPSMYNNLGLFINHYPNGVVTVNCARIIHGNQIATNGVVHVIDRVLTQIGTSIQDFIEAEDDLSSFRAAAITSDILEALGRDGHFTLFAPTNEAFEKLPRGVLERFMGDKVASEALMKYHILNTLQCSESIMGGAVFETLEGNTIEIGCDGDSITVNGIKMVNKKDIVTNNGVIHLIDQVLIPDSAKQVIELAGKQQTTFTDLVAQLGLASALRPDGEYTLLAPVNNAFSDDTLSMVQRLLKLILQNHILKVKVGLNELYNGQILETIGGKQLRVFVYRTAVCIENSCMEKGSKQGRNGAIHIFREIIKPAEKSLHEKLKQDKRFSTFLSLLEAADLKELLTQPGDWTLFVPTNDAFKGMTSEEKEILIRDKNALQNIILYHLTPGVFIGKGFEPGVTNILKTTQGSKIFLKEVNDTLLVNELKSKESDIMTTNGVIHVVDKLLYPADTPVGNDQLLEILNKLIKYIQIKFVRGSTFKEIPVTVY
Question: For B2, which “induction of cardiomyocyte DNA synthesis” value [2] is on record?
Answer: stimulated DNA synthesis as effectively as FGF
